Test results from publication PMC8112388 (Inorganic chemistry, 2021).

Target: human serum albumin (HSA) (Homo sapiens, UniProt P02768)
Test: proton relaxation enhancement titration
Format: binding
Conditions: read-out: KD(HSA)

Chain of human serum albumin (HSA) (P02768 25-609): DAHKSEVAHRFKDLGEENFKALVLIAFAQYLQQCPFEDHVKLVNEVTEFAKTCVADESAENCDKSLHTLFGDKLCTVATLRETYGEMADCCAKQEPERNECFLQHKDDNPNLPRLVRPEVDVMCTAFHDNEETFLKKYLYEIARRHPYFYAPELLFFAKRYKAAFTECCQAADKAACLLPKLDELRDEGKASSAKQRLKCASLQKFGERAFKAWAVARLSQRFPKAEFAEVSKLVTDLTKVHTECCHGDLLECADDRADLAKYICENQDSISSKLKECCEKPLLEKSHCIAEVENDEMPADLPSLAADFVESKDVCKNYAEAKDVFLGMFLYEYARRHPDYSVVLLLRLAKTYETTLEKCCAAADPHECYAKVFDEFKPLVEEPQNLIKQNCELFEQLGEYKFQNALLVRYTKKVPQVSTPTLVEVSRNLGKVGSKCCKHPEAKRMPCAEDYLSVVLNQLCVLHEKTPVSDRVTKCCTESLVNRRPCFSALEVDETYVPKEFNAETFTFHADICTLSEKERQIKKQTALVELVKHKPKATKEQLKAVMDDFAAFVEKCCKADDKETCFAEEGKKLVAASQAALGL

Question: How did the Kd turn out when MnPyC3A–BPEN [Mn(3)] was run?
Answer: 28 ± 1 µM
